Laboratory results reported in US7932249B2, “Olanzapine pamoate dihydrate” (Eli Lilly and Company, priority 2005, dated 2011).

Legend:
Format in all cases: physicochemical
[1] = In vitro dissolution test at higher paddle speed (100 rpm); details: 100 rpm paddle speed, 0.05% CTAB pH 6.8 USP buffer, 37° C.
Protocol: Another dissolution experiment was performed in order to ensure that the media conditions used to generate the profiles in Table 4 were not solubility limiting. This experiment was performed using the same samples and media conditions but at a higher paddle speed to provide the data listed in Table 5.

[2] = Solubility in aqueous solution (comparative statement)
[3] = Comparative in vitro dissolution test, 50 rpm paddle speed; details: for Average % Olanzapine Release (n = 3): USP Apparatus 2, 50 rpm, 0.05% CTAB pH 6.8 USP buffer, 37° C., 1000 mL
Protocol: In-vitro dissolution testing was performed to compare the olanzapine release rates for olanzapine pamoate monohydrate and the olanzapine pamoate dihydrate.

| SMILES | % Olanzapine Release (n = 1) ([1]; 24 hrs) [%] | % Olanzapine Release (n = 1) ([1]; 36 hrs) [%] | Solubility in aqueous solution compared with olanzapine pamoate monohydrate [2] | Average % Olanzapine Release (n = 3) ([3]; 0.25 hr) [%] | Average % Olanzapine Release (n = 3) ([3]; 0.5 hr) [%] | Average % Olanzapine Release (n = 3) ([3]; 0.75 hr) [%] | Average % Olanzapine Release (n = 3) ([3]; 1 hr) [%] | Average % Olanzapine Release (n = 3) ([3]; 2 hrs) [%] | Average % Olanzapine Release (n = 3) ([3]; 4 hrs) [%] | Average % Olanzapine Release (n = 3) ([3]; 6 hrs) [%] | Average % Olanzapine Release (n = 3) ([3]; 24 hrs) [%] | Release rate of olanzapine compared with olanzapine pamoate monohydrate ([3]; aqueous conditions of Table 3, 50 rpm) |
| --- | --- | --- | --- | --- | --- | --- | --- | --- | --- | --- | --- | --- |
| Cc1cc2c(s1)Nc1ccccc1N=C2N1CCN(C)CC1.O.O.O=C(O)c1cc2ccccc2c(Cc2c(O)c(C(=O)O)cc3ccccc23)c1O [Olanzapine Pamoate Dihydrate, 2-methyl-4-(4-methyl-1-piperazinyl)-10H-thieno[2,3-b][1,5]benzodiazepine pamoate dihydrate] | 95 | 97 | substantially less soluble in aqueous solution than olanzapine pamoate monohydrate | 19 | 26 | 30 | 33 | 40 | 45 | 47 | 59 | substantially lower release rate of olanzapine than the olanzapine pamoate monohydrate |
| Cc1cc2c(s1)Nc1ccccc1N=C2N1CCN(C)CC1.O=C(O)c1cc2ccccc2c(Cc2c(O)c(C(=O)O)cc3ccccc23)c1O [Olanzapine Pamoate Monohydrate, 2-methyl-4-(4-methyl-1-piperazinyl)-10H-thieno[2,3-b][1,5]benzodiazepine pamoate, reference compound] | 99 | 99 |  | 27 | 39 | 46 | 52 | 62 | 73 | 77 | 83 |  |
